Literature values as cited in patent US11839217B2, “Composition comprising a bioactive molecule” (EUCARYO BEHEER B.V., priority 2016, dated 2023).

- solubility in ethanol (ethanol): 40 to 1200 µg/mL
- solubility in water (water): 30 to 50 µg/mL
SMILES: C[C@@H]1C/C=C/C=C/C=C/C=C/[C@H](O[C@@H]2O[C@H](C)[C@@H](O)[C@H](N)[C@@H]2O)C[C@@H]2O[C@](O)(C[C@@H](O)C[C@H]3O[C@@H]3/C=C/C(=O)O1)C[C@H](O)[C@H]2C(=O)O [natamycin]
